Results on 75 molecules are retold here after a melting point compilation (Tetko et al.).

Take `Cn1c(=O)c(C2=NNC(=O)C2=NNc2ccccc2Br)c(O)c2ccccc21`: the melting point was determined as 270 °C. In turn, `CCCCCCCCCCCCCCCCCCC(=O)NC` displayed a melting point of 91 to 94 °C. `CCN(CC(=O)O)C(=O)OC(C)(C)C` showed a melting point of 88 °C. On to `N#CC(C#N)=C(C(=O)Cc1ccccc1)c1ccc([N+](=O)[O-])cc1`, for which the melting point lay within 332 to 334 °C. The figure for `BrCCOc1ccc(Br)cc1` is 56 to 57 °C; for `Cc1cc(-n2c(=O)[nH]c(=O)n(C)c2=O)ccc1Oc1ccc(SC(F)(F)F)cc1` it is 194 °C.

`CN(C)CCN1C(=O)c2ccccc2Nc2cc(Cl)ccc21` returned a melting point of 166 °C. The figure for `COc1cccc(NC(N)=S)c1` is 160 °C; for `C/C(=N/NC(N)=S)C(=O)Nc1ccc(Br)cc1` it is 228 to 230 °C. The same measure for `O=C(O)[C@H]1CCCCN1C(=O)OCC1c2ccccc2-c2ccccc21`: 149 to 153 °C; for `CN1CSCSC1`: 65 °C. The same measure for `BrC(Br)(Br)c1ccc2cc3ccc(C(Br)(Br)Br)nc3cc2n1`: 190 °C; for `O=C(O)CCc1nc(-c2ccccc2)c(-c2ccccc2)o1`: 160 °C; for `CCOc1nc2ccccc2c(=O)n1CCO`: 81 to 82 °C. Turning to `O=C(O)C12CC3CC(C1)CC(C(F)(F)C(F)C(F)(F)F)(C3)C2` (stereo not given), the melting point lay within 115 to 117 °C. The figure for `COc1cccc(C=C2C(=O)NN=C2c2c(O)c3ccccc3n(C)c2=O)c1` is 254 °C; for `C=CCNC(=S)Nc1sc2c(c1C(=O)OCC)CCCC2` it is 151 to 152 °C; for `OCc1c(F)ccc(F)c1F` it is 46 °C.

On to `CC12C=CC(=O)C=C1CCC1C2CCC2(C)C1CCC2(C)O` (stereo not given), for which the melting point turned out to be 164 °C. `Cc1noc(C)c1[N+](=O)[O-]` gave a melting point of 57 to 60 °C. The same measure for `CC(C)=C1C2C=CC1c1ccccc12`: 92 °C; for `Cc1cc(C)c2c(c1)OC(=O)C2`: 105 °C; for `COC(=O)C1=C(C)NC(=O)NC1c1cccc(OC)c1O` (stereo not given): 208 °C. The same measure for `Cc1cc(O)c2ccccc2c1O`: 169 °C. The figure for `O=C(OCc1ccccc1)c1cccnc1` is 22 °C; for `O=[N+]([O-])c1ccc(-c2nnc3n2NC(c2ccco2)S3)cc1` (stereo not given) it is 210 °C.

`Nc1nc2ccccc2[nH]1` showed a melting point of 230 °C. The same measure for `CCSCc1ccccc1OC(=O)NC`: 33.4 °C; for `CC(C)(C)OC(=O)NCc1ccc(CO)cc1`: 98 to 99 °C. The same measure for `Cc1c(NC(=O)C(C(F)(F)F)C(F)(F)F)c(=O)n(-c2ccccc2)n1C`: 237 to 239 °C.

`c1ncncn1` came in with a melting point of 86 °C. On to `CC(=O)NS(=O)(=O)c1ccc(NC(=O)c2ccccc2C(=O)O)cc1`, for which the melting point is 196 °C. In turn, `COC1=CC=C2C3Cc4ccc(OC)c5c4C2(CCN3C)C1O5` (stereo not given) came in with a melting point of 193 °C. Consider `Cc1ccc(NN=C2C(=O)NC(=S)NC2=O)cc1`, for which the melting point worked out at 305 °C. The figure for `COc1ccc(Br)cc1CO` is 68 to 73 °C; for `Oc1ccc(C(F)(F)F)cc1` it is 46 °C. The same measure for `c1ccc(P(c2ccccc2)c2ccc3ccccc3c2-c2c(P(c3ccccc3)c3ccccc3)ccc3ccccc23)cc1`: 283 °C; for `O=[N+]([O-])c1ccc2c(O)c(-c3cccc(-c4[nH]c5cc([N+](=O)[O-])ccc5c4O)c3)[nH]c2c1`: 266 °C; for `CC(C)(C)C1=CC(=NO)C=C(C(C)(C)C)C1=O`: 219 °C.

The molecule `Oc1ccc(/C=C/c2ccccc2)cc1` registered a melting point of 185 to 189 °C. `Cc1cc(O)c(C(C)(C)C)cc1Sc1cc(C(C)(C)C)c(O)cc1C`: the melting point was 162 °C. `Nc1ncccc1[N+](=O)[O-]` showed a melting point of 166 °C. As for `Cc1ccc(N=Nc2ccc(C)cc2)cc1`, the melting point was found to be 140 °C. The molecule `N#Cc1ccc(F)c(Br)c1` came in with a melting point of 56 °C. The figure for `Nc1cc(C(F)(F)F)ccc1[N+](=O)[O-]` is 100 °C. For `CC(C)CCCC(C)C1CCC2C3CC(=O)C4(O)CC(=O)CCC4(C)C3CCC12C` (stereo not given), the melting point worked out at 222 °C. The same measure for `Cc1ncc([N+](=O)[O-])n1CC(C)O` (stereo not given): 76 °C; for `c1ccc2nonc2c1`: 54 °C; for `CC(=O)Nc1ccccc1CCN(CCc1ccccc1NC(C)=O)N=O`: 172 °C. In the case of `CCOC(=O)c1nnc(N)o1`, the melting point lay within 199 to 201 °C. The same measure for `CCCOC(=O)c1ccc(OC(=O)c2ccc(C(=O)Oc3ccc(C(=O)OCCC)cc3)cc2)cc1`: 129 to 205 °C. In the case of `CC(C(C)P(c1ccccc1)c1ccccc1)P(c1ccccc1)c1ccccc1` (stereo not given), the melting point was 104 to 109 °C. The figure for `COc1cc(C=O)ccc1F` is 62 °C. The same measure for `O=C(COc1ccc2ccccc2c1)ON1C(=O)CCC1=O`: 150 to 152 °C; for `O=C(O)Cc1ccccc1I`: 116 °C. On to `Nc1ccc(S(=O)(=O)c2ccc([N+](=O)[O-])cc2)cc1`, for which the melting point turned out to be 170 °C. `O=C(CO)CO` showed a melting point of 90 °C. The figure for `CCS(=O)(=O)c1nc2ccccn2c1S(=O)(=O)NC(=O)Nc1nc(OC)cc(OC)n1` is 202 °C. As for `CC12CCC(C(=Cc3ccccc3)C1=O)C2(C)C` (stereo not given), the melting point turned out to be 97 °C.

On to `CC(=O)C(C(=O)c1ccccc1)c1cc(Cl)c([N+](=O)[O-])cc1[N+](=O)[O-]` (stereo not given), for which the melting point came to 131 °C. `Cc1cc(C)c([N+](=O)[O-])cc1C` registered a melting point of 71 °C. Turning to `c1ccc2c(C3CCNCC3)c[nH]c2c1`, the melting point was 222 to 223 °C.

Turning to `CC(C)n1cc(-c2ccc(F)cc2)c2ccccc21`, the melting point came to 97 °C. The figure for `O=C(O)Cc1coc2ccccc12` is 90 to 93 °C; for `CCCCCCCCCCCCN(CCCCCCCCCCCC)CCCCCCCCCCCC` it is 16 °C; for `CC12CCC3C(CCC4=CC(=O)CCC43C)C1CCC2=O` (stereo not given) it is 170 to 171 °C. Consider `CCCCc1nc(C=O)c(Cl)[nH]1`, for which the melting point was 98 to 100 °C.

The molecule `Cc1c(N)cc([N+](=O)[O-])cc1[N+](=O)[O-]` gave a melting point of 174 °C. `CCC12CC3CC(CC(Br)(C3)C1)C2` gave a melting point of 23 to 24 °C.

Molecule `Cc1nc(CC#N)sc1/N=N/c1ccc([N+](=O)[O-])cc1` showed a melting point of 233 °C. The same measure for `COc1ccccc1C1(C)CCc2oc3ccc(Br)cc3c2-c2oc(C)cc21` (stereo not given): 209 °C. For `CC(C)NCC1CCc2cc(CO)c([N+](=O)[O-])cc2N1` (stereo not given), the melting point turned out to be 148 °C. The figure for `O=c1cc(NC2CCCCC2)c2ccccc2o1` is 194 °C; for `BrC(Br)=C(Br)Br` it is 56.5 °C; for `COC(=O)C(C)(C)C1=CCC2(C)C(CCC3C4CCC(O)C4(C)CCC32)C1` (stereo not given) it is 150 °C.
